# Earlier results as cited in patent US7588929B2, “Production of bacteriophage compositions for use in phage therapy” (Phage Biopharm LLC, priority 2002, dated 2009).
# System: phage-2 inactivation by BI-LPS
# Conditions: inactivation 95% in controls without sugar
row,Structure (SMILES),concentration reducing inactivation to 50%
1,O=CC[C@@H](O)[C@H](O)[C@H](O)CO [2-deoxy-D-glucose],1 M
2,O=C[C@H](O)[C@@H](O)[C@@H](O)[C@H](O)CO [D-galactose],about 1.4 M
3,N[C@H]1C(O)O[C@H](CO)[C@@H](O)[C@@H]1O (stereo partly drawn) [D-glucosamine],0.25-0.3 M
4,O=C[C@H](O)[C@@H](O)[C@H](O)[C@H](O)CO [D-glucose],1 M
5,O=C[C@@H](O)[C@@H](O)[C@H](O)[C@H](O)CO [D-mannose],1 M
6,O=C[C@H](O)[C@@H](O)[C@H](O)CO [D-xylose],about 1.4 M
7,C[C@H](O)[C@H](O)[C@@H](O)[C@@H](O)C=O [L-rhamnose],1 M
8,CC(=O)N[C@H]1C(O)O[C@H](CO)[C@@H](O)[C@@H]1O (stereo partly drawn) [N-acetyl-D-glucosamine],about 1.4 M
